Laboratory results published in patent US10398751B2, “Pharmaceutical compositions of water soluble peptides with poor solubility in isotonic conditions and methods for their use” (STRONGBRIDGE IRELAND LIMITED, priority 2016, dated 2019).
≈ marks a conversion by molar mass, not a printed value.

Key:
[1] = Solubility of COR005 acetate in aqueous media with additives at 25° C.; assay type: physicochemical; conditions: isotonic 5% dextrose in water, 5% Dextrose Isotonic; additives none; read-out: Solubility of COR005 Acetate (mg/ml) at 25° C.
From the text: Table 3 summarizes the solubility values of COR005 acetate in various aqueous media, the effects of additives such as DEX and HPB on the peptide solubility in saline and physiological conditions, as well as the PK profile of IR and MS formulations prepared with these additives in comparison to COR005 without additives as control.
Note that both media (PBS or Saline) contained physiological concentrations of chloride which indicates the incompatibility and salting out of the peptide in the presence of the chloride ion.
The relatively high solubility of COR005 acetate in 5% dextrose (in water) of greater than 500 mg/ml indicates the improved solubility of the peptide in water with dextrose. […] Note that this 1:1 diluted dextrose in saline was used as a vehicle in the IR study of COR005 acetate in rats and minipigs (the DEX:PEP ratio was 5:1).

[2] = in vivo; set-up: species or system rats; conditions: HSD:Sprague Dawley SD, rat, sc, 3 mg/kg
Procedure: The lactic acid vehicle for use in the formulations as shown in Table 7 below was prepared as follows: Formulations for injection into rats were prepared as summarized in Table 8. Subject rats (mean weight of about 370 grams per subject) were injected according to the above dosing schedule in groups of 5 rats per treatment. Baseline tail bleed samples were drawn from the rats at 2 days prior to dosing. […] Blood samples were approximately 300 uL of whole blood collected in commercial K3 EDTA-coated tubes. Subject rats were also observed for injection site reactions for up to 5-7 days post-dosing. Blood samples were kept on ice following collection until the time of centrifugation. Blood samples were processed within 60 minutes from blood collection. Samples were centrifuged at 3000 G for 15 minutes in a refrigerated centrifuge (5° C.). Plasma was withdrawn from the tubes after centrifugation and placed into new, appropriately labeled tubes and stored at −65° C. to −80° C. until transfer. […] Veldoreotide acetate standard was serially diluted with methanol:water (1:9) and added to blank rat plasma to generate calibration standards and QC samples. The calibration samples were stored at −70° C. Frozen samples were then thawed to room temperature. Blank plasma and reagent blank (water) were also prepared. For each 100 uL aliquot of sample, calibrator or QC sample, 25 uL (˜100 ng/mL) of internal standard (octreotide acetate) in methanol:water (1:9) and 600 uL of acetonitrile:formic acid (99:1) were added and the samples vortex mixed for 30 seconds. Samples were diluted by mixing 20 uL of plasma sample with 180 uL of blank plasma and aliquotted at 100 uL prior to addition of the internal standard and acetonitrile:formic acid solutions. Samples were then centrifuged for 10 minutes at 14,000 rpm at 8° C. 450 uL of the upper (organic) layer was then transferred to evaporation tubes and evaporated under nitrogen at about 50° C. Samples were then reconstituted in 200 uL of reconstitution solution (water:acetonitrile:formic acid at 70:30:0.2). Samples were centrifuged for 10 minutes at 4000 rpm at 8° C. 160 uL of each sample was withdrawn and placed in an autosampler vial with conic glass insert and analyzed via LC-MS/MS. Veldoreotide acetate plasma concentrations were then plotted and analyzed using standard pharmacokinetic techniques.

[3] = Solubility and surface activity in PBS under physiological conditions (37° C.); assay type: physicochemical; conditions: COR005 10 mg/ml; for Surface tension (dyne/cm) / Effect of surface tension (% of baseline): PBS pH 7.4, 37° C.; for solubility: PBS, pH 7.4, PBS pH 7.4, 37° C.
Procedure: Table 6 summarizes the effects of additives on the surface activity profile of COR005 acetate under physiological conditions (37° C.) that emulate the release of COR005 at the injection site.

[4] = Density, pH and surface tension of solutions (capillary method); assay type: physicochemical; conditions: DDW, 25° C., baseline 64.9 dyne/cm
Procedure: Tween 80 was used as a control surfactant for comparison. Densities were measured on 1 mL fixed volume samples. […] The effect of veldoreotide acetate on the pH of double distilled water (DDW) was the same at all veldoreotide acetate concentrations. The pH of DDW of 5.0 was reduced to pH 4.5. The effect of veldoreotide acetate on the density of DDW (starting density of DDW was 1.003 g/ml) was concentration dependent from 1.4 mg/ml to 21.5 mg/ml with density ranging from 0.986 to 0.998 g/ml respectively. However, at veldoreotide acetate concentrations of 45 and 102 mg/ml the density was increased above the starting density of DDW. […] The effect of veldoreotide acetate on the surface tension of DDW (starting surface tension was 64.9 dyne/cm) was consistent with veldoreotide acetate behaving as a peptide amphiphile (surfactant). The surface tension of DDW was reduced by veldoreotide acetate at maximum from 64.9 to 45 dyne/cm. In order to elucidate the meaning of this effect, Tween 80 was used as a reference surfactant. Other surfactants include Polexamer 188. The reduction of surface tension induced by Tween 80 was in the range of 40% (from 64.9 dyne/cm to about 39 dyne/cm), in comparison to veldoreotide acetate of 30% (from 64.9 dyne/cm to about 45 dyne/cm). Note that, under these experimental conditions; the effect of Tween 80 indicated a concentration-effect relationship. Whereas, the effect of veldoreotide acetate on the reduction of surface tension was at the same range for all concentrations tested.
The data of table 4 show the surface activity of highly concentrated COR005 acetate (200 mg/ml), with or without additives in WFI, which emulates the preparation conditions of the primary emulsion of the microspheres. The results of Test 1 and 2 (Table 4) show the effect of COR005 acetate on the surface tension of water. When COR005 acetate is dissolved in water the surface tension is reduced by about 36%, from 68.5 dyne/cm for the water alone to 44 dyne/cm for the solution of water with CR005 acetate at 200 mg/ml.

`C[C@@H](O)[C@@H]1NC(=O)[C@H](CCCCN)NC(=O)[C@@H](Cc2c[nH]c3ccccc23)NC(=O)[C@H](Cc2c[nH]c3ccccc23)NC(=O)[C@H](Cc2ccccc2)NC(=O)CCCNC(=O)CCCN(CC(N)=O)C(=O)[C@H](Cc2ccccc2)NC1=O` [Veldoreotide, cyclo(-γ-aminobutyryl-L-phenylalanyl-L-tryptophanyl-D-tryptophanyl-L-lysyl-L-threonyl-L-phenylalanyl-N-carbamoylmethyl-γ-aminobutyryl)] showed a solubility [1] greater than 500 mg/mL, a Cmax ([2]; Rats Cmax (ng/ml)) of 544 ng/mL and a Cmax ([2]; pH 4, Rats Cmax (ng/ml)) of 345 ng/mL. The “Surface tension (dyne/cm)” value ([3]; Dextrose 5 wt %) was 49 dyne/cm, the “Effect of surface tension (% of baseline)” value (“Effect … (% of baseline)” for short) ([3]; Dextrose 5 wt %, at 48 h) was “(−18% at 48 h)” and the “Effect … (% of baseline)” value ([3]; Dextrose 5 wt %, baseline PBS/5% DEX) was −14%. For the same compound, the “Surface tension (dyne/cm)” value ([3]; HPB:PEP 1:2) was 45 dyne/cm, the “Effect … (% of baseline)” value ([3]; HPB:PEP 1:2, baseline PBS) was −6% and the “Effect … (% of baseline)” value ([3]; HPB:PEP 1:4, baseline PBS) was −19%. The “Surface tension (dyne/cm)” value ([3]; HPB:PEP 10:1) was 50 dyne/cm, the “Effect … (% of baseline)” value ([3]; HPB:PEP 10:1, baseline PBS) was “+4%” and the “Effect … (% of baseline)” value ([3]; no additive, baseline PBS) was −29%. The solubility ([3]; Dextrose 5 wt %) was 3300 µg/mL (≈ 2.94 mM), the solubility ([3]; HPB:PEP 1:2) was 5000 µg/mL (≈ 4.45 mM) and the solubility ([3]; HPB:PEP 1:4) was 3900 µg/mL (≈ 3.47 mM). For the same compound, the solubility ([3]; HPB:PEP 10:1) was 8900 µg/mL (≈ 7.92 mM), the solubility ([3]; no additive) was 3600 µg/mL (≈ 3.2 mM) and the “reduction of surface tension of water” value [4] was “more than 30%”.
